The assay addresses T1, Human Glucocorticoid Receptor (Homo sapiens, UniProt P04150).
T1 construct: endogenous in cells; host or cells: cytosol from IM-9 cell line
T1 sequence (P04150 1-777): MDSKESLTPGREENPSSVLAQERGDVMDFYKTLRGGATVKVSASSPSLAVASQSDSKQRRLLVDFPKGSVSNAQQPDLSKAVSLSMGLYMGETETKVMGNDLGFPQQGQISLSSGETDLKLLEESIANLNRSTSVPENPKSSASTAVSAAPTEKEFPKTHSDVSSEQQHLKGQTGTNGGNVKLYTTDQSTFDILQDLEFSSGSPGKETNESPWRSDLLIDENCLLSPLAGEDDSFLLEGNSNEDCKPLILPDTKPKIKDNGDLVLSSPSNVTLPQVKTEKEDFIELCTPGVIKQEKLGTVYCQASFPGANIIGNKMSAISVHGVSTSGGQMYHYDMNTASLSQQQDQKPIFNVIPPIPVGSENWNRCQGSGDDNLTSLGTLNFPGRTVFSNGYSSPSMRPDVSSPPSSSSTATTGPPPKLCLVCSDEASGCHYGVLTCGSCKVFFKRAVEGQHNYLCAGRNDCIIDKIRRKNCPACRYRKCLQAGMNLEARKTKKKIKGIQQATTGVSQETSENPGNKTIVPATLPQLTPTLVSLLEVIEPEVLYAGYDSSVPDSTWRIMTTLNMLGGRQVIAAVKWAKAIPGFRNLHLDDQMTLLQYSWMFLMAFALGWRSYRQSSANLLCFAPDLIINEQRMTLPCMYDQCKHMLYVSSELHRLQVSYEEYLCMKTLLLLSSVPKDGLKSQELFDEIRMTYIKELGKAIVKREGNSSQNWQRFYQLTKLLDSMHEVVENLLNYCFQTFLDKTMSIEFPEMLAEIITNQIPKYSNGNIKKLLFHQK
Description: Competition Binding in IM-9 Human Glucocorticoid Receptor (GR IM-9). The following applies: cytosol from IM-9 cell line, 1.5 nM [3H]-Dexamethasone, 4° C. for 6 hours. On the procedure:
Competition Binding in IM-9 Human Glucocorticoid Receptor (GR IM-9)
Glucocorticoid receptor competition binding assays were carried out in a polypropilene 96-well plate. In each well was incubated 100 μg of cytosol from IM-9 cell line, 1.5 nM [3H]-Dexamethasone (71 Ci/mmol, 1 mCi/ml, Perkin Elmer NET1192001MC) and compounds studied and standard. Non-specific binding was determined in the presence of Triamcinolone 10 μM (Sigma Aldrich T6376).
The reaction mixture (Vt: 200 μl/well) was incubated at 4° C. for 6 hours, 180 μL was transferred to GF/B 96-well plate (Millipore, Madrid, Spain) pretreated with 0.5% of PEI and treated with binding buffer (TES 10 mM, sodium molybdate 10 mM, EDTA 1 mM, pH 7.4, 2-mercaptoethanol 20 mM, Glycerol 10%) after was filtered and washed six times with 250 μl wash buffer (TES 10 mM, sodium molybdate 10 mM, EDTA 1 mM, pH 7.4, 2-mercaptoethanol 20 mM Glycerol 10%), before measuring in a microplate beta scintillation counter (Microbeta Trilux, PerkinElmer, Madrid, Spain).
With `CC1=C(C#N)C(c2csc3c(C#N)cccc23)C(C(=O)OCC2CC2)=C(C2CC2)N1` (centres unmarked) [Example C111, Cyclopropylmethyl 5-cyano-4-(7-cyanobenzo[b]thiophen-3-yl)-2-cyclopropyl-6-methyl-1,4-dihydropyridine-3-carboxylate], the IC50 (usually the point on the concentration scale where inhibition reaches its midpoint) is under 100 nM. With `COC(=O)C1=C(COCCN)NC(C)=C(C(C)=O)C1c1csc2ccccc12` (centres unmarked) [Example C114, Methyl 5-acetyl-2-((2-aminoethoxy)methyl)-4-(benzo[b]thiophen-3-yl)-6-methyl-1,4-dihydropyridine-3-carboxylate], the concentration for half-maximal inhibition (IC50) is at least 1000 nM. In turn, `COC(=O)C1=C(COCCN)NC(C)=C(C(C)=O)C1c1csc2c(Br)cccc12` (centres unmarked) [Example C115, Methyl 5-acetyl-2-((2-aminoethoxy)methyl)-4-(7-bromobenzo[b]thiophen-3-yl)-6-methyl-1,4-dihydropyridine-3-carboxylate] displayed a half-inhibitory concentration (IC50) of at least 1000 nM. With `COC(=O)C1=C(COCCN)NC(C)=C(C(C)=O)C1c1csc2c(C#N)cccc12` (centres unmarked) [Example C116, Methyl 5-acetyl-2-((2-aminoethoxy)methyl)-4-(7-cyanobenzo[b]thiophen-3-yl)-6-methyl-1,4-dihydropyridine-3-carboxylate], the 50% inhibitory concentration (IC50) lay within 100 to 1000 nM.

The molecule `COC(=O)C1=C(N)NC(C)=C(C(C)=O)C1c1csc2c(C#N)cccc12` (centres unmarked) [Example D5, Methyl 5-acetyl-2-amino-4-(7-cyanobenzo[b]thiophen-3-yl)-6-methyl-1,4-dihydropyridine-3-carboxylate] registered an IC50 of under 100 nM.

As for `CC(=O)C1=C(C)NC(N)=C(C(=O)OC2CCCC2)C1c1csc2c(C#N)cccc12` (centres unmarked) [Example D8, Cyclopentyl 5-acetyl-2-amino-4-(7-cyanobenzo[b]thiophen-3-yl)-6-methyl-1,4-dihydropyridine-3-carboxylate], the 50% inhibitory concentration (IC50) was under 100 nM. `CC(=O)C1=C(C)NC(N)=C(C(=O)OCC2CC2)C1c1csc2c(C#N)cccc12` (centres unmarked) [Example D10, Cyclopropylmethyl 5-acetyl-2-amino-4-(7-cyanobenzo[b]thiophen-3-yl)-6-methyl-1,4-dihydropyridine-3-carboxylate] registered an IC50 of under 100 nM.

Take `CC(=O)C1=C(C)NC(N)=C(C(=O)OC2CCC(F)(F)CC2)C1c1csc2c(C#N)cccc12` (centres unmarked) [Example D11, 4,4-difluorocyclohexyl 5-acetyl-2-amino-4-(7-cyanobenzo[b]thiophen-3-yl)-6-methyl-1,4-dihydropyridine-3-carboxylate]: the half-maximal inhibitory concentration (IC50) is under 100 nM.

As for `COC(=O)C1=C(N)NC(C)=C(C#N)C1c1csc2c(C#N)cccc12` (centres unmarked) [Example D12, Methyl 2-amino-5-cyano-4-(7-cyanobenzo[b]thiophen-3-yl)-6-methyl-1,4-dihydropyridine-3-carboxylate], the IC50 is under 100 nM. As for `CC(=O)C1=C(C)NC(N)=C(C(=O)OCc2ccc(F)cc2)C1c1csc2c(C#N)cccc12` (centres unmarked) [Example D13, 4-fluorobenzyl 5-acetyl-2-amino-4-(7-cyanobenzo[b]thiophen-3-yl)-6-methyl-1,4-dihydropyridine-3-carboxylate], the figure is under 100 nM; as for `COC(=O)C1=C(N)NC(C)=C(C(C)=O)C1c1csc2ncc(F)cc12` (centres unmarked) [Example D14, Methyl 5-acetyl-2-amino-4-(5-fluorothieno[2,3-b]pyridin-3-yl)-6-methyl-1,4-dihydropyridine-3-carboxylate], at least 1000 nM. As to `COC(=O)C1=C(NC(C)=O)NC(C)=C(C(C)=O)C1c1csc2ncc(F)cc12` (centres unmarked) [Example D15, Methyl 2-acetamido-5-acetyl-4-(5-fluorothieno[2,3-b]pyridin-3-yl)-6-methyl-1,4-dihydropyridine-3-carboxylate], the half-maximal inhibitory concentration (IC50) was 100 to 1000 nM.

Turning to `CC(=O)C1=C(C)NC(N)=C(C(=O)OCC2CCCC2)C1c1csc2c(C#N)cccc12` (centres unmarked) [Example D16, Cyclopentylmethyl 5-acetyl-2-amino-4-(7-cyanobenzo[b]thiophen-3-yl)-6-methyl-1,4-dihydropyridine-3-carboxylate], the half-inhibitory concentration (IC50) is under 100 nM. `COC(=O)C1=C(C)NC(N)=C(C(=O)OCC2CC2)C1c1csc2c(C#N)cccc12` (centres unmarked) [Example D17, 3-(cyclopropylmethyl) 5-methyl 2-amino-4-(7-cyanobenzo[b]thiophen-3-yl)-6-methyl-1,4-dihydropyridine-3,5-dicarboxylate] displayed a half-inhibitory concentration (IC50) of under 100 nM. Turning to `COC(=O)C1=C(N)NC(C2CC2)=C(C(=O)OC)C1c1csc2c(C#N)cccc12` (centres unmarked) [Example D18, Dimethyl 2-amino-4-(7-cyanobenzo[b]thiophen-3-yl)-6-cyclopropyl-1,4-dihydropyridine-3,5-dicarboxylate], the IC50 is under 100 nM.

As for `COC(=O)C1=C(C2CC2)NC(N)=C(C(=O)OCC2CC2)C1c1csc2c(C#N)cccc12` (centres unmarked) [Example D19, 3-(cyclopropylmethyl) 5-methyl 2-amino-4-(7-cyanobenzo[b]thiophen-3-yl)-6-cyclopropyl-1,4-dihydropyridine-3,5-dicarboxylate], the IC50 is under 100 nM. As for `COC(=O)C1=C(N)NC(N)=C(C(=O)OC)C1c1csc2c(C#N)cccc12` [Example D20, dimethyl 2,6-diamino-4-(7-cyanobenzo[b]thiophen-3-yl)-1,4-dihydropyridine-3,5-dicarboxylate], the IC50 lay within 100 to 1000 nM. With `COC(=O)C1=C(N)NC(C2CC2)=C(C(=O)OCC2CC2)C1c1csc2c(C#N)cccc12` (centres unmarked) [Example D21, 5-(cyclopropylmethyl) 3-methyl 2-amino-4-(7-cyanobenzo[b]thiophen-3-yl)-6-cyclopropyl-1,4-dihydropyridine-3,5-dicarboxylate], the half-maximal inhibitory concentration (IC50) was under 100 nM. On to `CC(=O)C1=C(C)NC(N)=C(C(=O)OCC2CC2)C1c1csc2cc(C#N)ccc12` (centres unmarked) [Example D28, Cyclopropylmethyl 5-acetyl-2-amino-4-(6-cyanobenzo[b]thiophen-3-yl)-6-methyl-1,4-dihydropyridine-3-carboxylate], for which the concentration for half-maximal inhibition (IC50) was 100 to 1000 nM. `COC(=O)C1=C(C)NC(N)=C(C(=O)OCC2CC2)C1c1csc2c(C#N)ccnc12` (centres unmarked) [Example D44, 3-(Cyclopropylmethyl) 5-methyl 2-amino-4-(7-cyanothieno[3,2-b]pyridin-3-yl)-6-methyl-1,4-dihydropyridine-3,5-dicarboxylate] had a concentration for half-maximal inhibition (IC50) of under 100 nM. The molecule `COC(=O)C1=C(C)NC(N)=C(C(=O)OCC2CC2)C1c1csc2c(C#N)cc(C#N)cc12` (centres unmarked) [Example D48, 3-(Cyclopropylmethyl) 5-methyl 2-amino-4-(5,7-dicyanobenzo[b]thiophen-3-yl)-6-methyl-1,4-dihydropyridine-3,5-dicarboxylate] had an IC50 of under 100 nM. Take `COC(=O)C1=C(C)NC(N)=C(C(=O)OCC(F)(F)F)C1c1csc2c(C#N)cccc12` (centres unmarked) [Example D50, 5-Methyl 3-(2,2,2-trifluoroethyl) 2-amino-4-(7-cyanobenzo[b]thiophen-3-yl)-6-methyl-1,4-dihydropyridine-3,5-dicarboxylate]: the IC50 was under 100 nM. As for `CC1=C(C(=O)OCC(F)(F)F)C(c2csc3c(C#N)cccc23)C(C(=O)OCC2CC2)=C(N)N1` (centres unmarked) [Example D51, 3-(Cyclopropylmethyl) 5-(2,2,2-trifluoroethyl) 2-amino-4-(7-cyanobenzo[b]thiophen-3-yl)-6-methyl-1,4-dihydropyridine-3,5-dicarboxylate], the IC50 is under 100 nM. `COC(=O)C1=C(C)NC(N)=C(C(=O)OCC2CC2)C1c1csc2c(C#N)c(Cl)ccc12` (centres unmarked) [Example D52, 3-(Cyclopropylmethyl) 5-methyl 2-amino-4-(6-chloro-7-cyanobenzo[b]thiophen-3-yl)-6-methyl-1,4-dihydropyridine-3,5-dicarboxylate] came in with a 50% inhibitory concentration (IC50) of under 100 nM. Molecule `COC(=O)C1=C(C)NC(N)=C(C(=O)OCC(C)(C)F)C1c1csc2c(C#N)cccc12` (centres unmarked) [Example D53, 3-(2-Fluoro-2-methylpropyl) 5-methyl 2-amino-4-(7-cyanobenzo[b]thiophen-3-yl)-6-methyl-1,4-dihydropyridine-3,5-dicarboxylate] came in with an IC50 of under 100 nM. The figure for `COC(=O)C1=C(C)NC(N)=C(C(=O)OCC2CC2)C1c1csc2c(C#N)c(C(F)(F)F)ccc12` (centres unmarked) [Example D54, 3-(Cyclopropylmethyl) 5-methyl 2-amino-4-(7-cyano-6-(trifluoromethyl)benzo[b]thiophen-3-yl)-6-methyl-1,4-dihydropyridine-3,5-dicarboxylate] is under 100 nM.

The values above are taken from US11453660B2, “Androgen receptor and glucocorticoid receptor modulators” (ONCOSTELLAE, S.L., priority 2017, dated 2022).
